Series [1] in a line: Experimental maximum plasma concentration of digoxin in patients by MDR1 exon 26 (C3435T) polymorphism. Type of series: in vivo, human. The settings on record: type TT versus wild type. An excerpt: The transport protein which has been most widely studied and described in the literature is p-glycoprotein (P-Gp) which, besides other organs, is expressed particularly in the gut where it can have an influence on the absorption of orally applied active agents. The associated gene is generally identified as MDR1. MDR1 may be present in different alleles, it being known that these lead to different activity of the associated protein (see Martin F. Fromm, The influence of MDR1 polymorphisms on P-glycoprotein expression and function in humans, Advanced Drug Delivery Reviews 54, 1295 (2002)). For P-Gp, tables of pharmaceutical active agents which are a substrate for it have been published (see for example C. J. Matheny et al., Pharmacokinetic and Pharmacodynamic Implications of P-glycoprotein Modulation, Pharmacotherapy, 21, 778 (2001)). One example of such a substrate is digoxin.
For instance, the Cmax values (maximum plasma concentration) listed in Table 1 are given for the polymorphism in exon 26 (C3435T).

For series [2] the following is noted: human.
The conditions of series [3]: 0.25 mg digoxin, cited from earlier work.

Like-named read-outs stand apart in the source and are kept apart here.

For orientation: clearance means the rate of elimination divided by the concentration. Lower therefore signals a low capacity for elimination. As usually defined, the Papp is the rate of passage across a membrane or cell layer, normalised by area and donor concentration. The term fraction unbound denotes free concentration divided by total concentration. Read a low fraction unbound as extensive binding.

With `C[C@H]1O[C@@H](O[C@H]2[C@@H](O)C[C@H](O[C@H]3[C@@H](O)C[C@H](O[C@H]4CC[C@@]5(C)[C@H](CC[C@@H]6[C@@H]5C[C@@H](O)[C@]5(C)[C@@H](C7=CC(=O)OC7)CC[C@]65O)C4)O[C@@H]3C)O[C@@H]2C)C[C@H](O)[C@@H]1O` [digoxin], the “experimentally found increase of Cmax” value in series [1] came to 30%. Besides, the clearance in series [2] amounted to 0.48 mL/min/kg. Also, the Papp in series [2] (not told) is 1.4 ×10⁻⁶ cm/s. In series [2] (plasma), this compound showed a fraction unbound of 0.73. Further, the Cmax experiment is 1.6 µg/L in series [3] (patients with CC (wild type) polymorphism in exon 26 (C3435T) of MDR1, plasma) and 2.1 µg/L in series [3] (patients with TT (homozygotic) polymorphism in exon 26 (C3435T) of MDR1, plasma).

Values taken from US20050074803A1, “Method for determining an active agent dose” (Bayer Technology Services GmbH, priority 2003, published 2005).
